Reference: ChEMBL document CHEMBL3885881, “DrugMatrix”

Species on record: Rattus norvegicus
Experiment: DrugMatrix - Regimen: Daily Repeat
Format: toxicity, organism-based, Sprague-Dawley
Design: regimen Daily Repeat, gender Male, age 6-8 weeks
Conditions: in vivo, po, route oral GAVAGE, vehicle 100 % WATER; for ABSOLUTE BASOPHIL / ABSOLUTE EOSINOPHIL / ABSOLUTE LYMPHOCYTE / ABSOLUTE MONOCYTE / ABSOLUTE SEGMENTED NEUTROPHIL / BASOPHIL / EOSINOPHIL / ERYTHROCYTE COUNT / HEMATOCRIT / HEMOGLOBIN / LEUKOCYTE COUNT / LYMPHOCYTE / MEAN CORPUSCULAR HEMOGLOBIN / MEAN CORPUSCULAR HEMOGLOBIN CONCENTRATION / MEAN CORPUSCULAR VOLUME / MONOCYTE / NEUTROPHIL / NUCLEATED RED BLOOD CELLS / PLATELET COUNT: tissue Blood; for ALANINE AMINOTRANSFERASE / ALBUMIN / ALKALINE PHOSPHATASE / ASPARTATE AMINOTRANSFERASE / BLOOD UREA NITROGEN / CARBON DIOXIDE / CHLORIDE / CHOLESTEROL / CREATINE PHOSPHOKINASE / CREATININE / GLUCOSE / LACTATE DEHYDROGENASE / LIPASE / PHOSPHORUS / SODIUM / TOTAL BILIRUBIN / TOTAL PROTEIN / URIC ACID: tissue Plasma
[1] = 0 mg/kg, 72 h, dose level Control, time 3 day
[2] = 0 mg/kg, 120 h, dose level Control, time 5 day
[3] = 200 mg/kg, 72 h, dose level Low, time 3 day

SMILES: CC1(C)S[C@@H]2[C@H](NC(=O)[C@H](N)c3ccc(O)cc3)C(=O)N2[C@H]1C(=O)O [AMOXICILLIN]
- ABSOLUTE BASOPHIL [1]: 0 CELLS/uL
- ABSOLUTE EOSINOPHIL [1]: 25 CELLS/uL
- ABSOLUTE LYMPHOCYTE [1]: 14357 CELLS/uL
- ABSOLUTE MONOCYTE [1]: 456.33 CELLS/uL
- ABSOLUTE SEGMENTED NEUTROPHIL [1]: 1461.67 CELLS/uL
- BASOPHIL [1]: 0%
- EOSINOPHIL [1]: 0.17%
- ERYTHROCYTE COUNT [1]: 5.85 x10E6/uL
- HEMATOCRIT [1]: 37.62%
- HEMOGLOBIN [1]: 13.87 G/DL
- LEUKOCYTE COUNT [1]: 16.3 x10E3/uL
- LYMPHOCYTE [1]: 88%
- MEAN CORPUSCULAR HEMOGLOBIN [1]: 23.68 pg
- MEAN CORPUSCULAR HEMOGLOBIN CONCENTRATION [1]: 36.88 G/DL
- MEAN CORPUSCULAR VOLUME [1]: 64.23 fL
- MONOCYTE [1]: 2.83%
- NEUTROPHIL [1]: 9%
- NUCLEATED RED BLOOD CELLS [1]: 0 /100WBC
- PLATELET COUNT [1]: 1125.33 x10E3/uL
- ALANINE AMINOTRANSFERASE [1]: 49.67 u/L
- ALBUMIN [1]: 4.23 G/DL
- ALKALINE PHOSPHATASE [1]: 400.83 u/L
- ASPARTATE AMINOTRANSFERASE [1]: 89.17 u/L
- BLOOD UREA NITROGEN [1]: 16 mg/dL
- CARBON DIOXIDE [1]: 31.83 mmol/L
- CHLORIDE [1]: 99 MEQ/L
- CHOLESTEROL [1]: 76 mg/dL
- CREATINE PHOSPHOKINASE [1]: 777.67 u/L
- CREATININE [1]: 0.22 mg/dL
- GLUCOSE [1]: 158.33 mg/dL
- LACTATE DEHYDROGENASE [1]: 186.17 u/L
- LIPASE [1]: 9.33 u/L
- PHOSPHORUS [1]: 12.95 mg/dL
- SODIUM [1]: 141.53 MEQ/L
- TOTAL BILIRUBIN [1]: 0.18 mg/dL
- TOTAL PROTEIN [1]: 6.08 G/DL
- URIC ACID [1]: 1.77 mg/dL
- ABSOLUTE BASOPHIL [2]: 0 CELLS/uL
- ABSOLUTE EOSINOPHIL [2]: 0 CELLS/uL
- ABSOLUTE LYMPHOCYTE [2]: 8994.5 CELLS/uL
- ABSOLUTE MONOCYTE [2]: 122.33 CELLS/uL
- ABSOLUTE SEGMENTED NEUTROPHIL [2]: 666.5 CELLS/uL
- BASOPHIL [2]: 0%
- EOSINOPHIL [2]: 0%
- ERYTHROCYTE COUNT [2]: 5.74 x10E6/uL
- HEMATOCRIT [2]: 35.17%
- HEMOGLOBIN [2]: 13.28 G/DL
- LEUKOCYTE COUNT [2]: 9.78 x10E3/uL
- LYMPHOCYTE [2]: 92.33%
- MEAN CORPUSCULAR HEMOGLOBIN [2]: 23.15 pg
- MEAN CORPUSCULAR HEMOGLOBIN CONCENTRATION [2]: 37.8 G/DL
- MEAN CORPUSCULAR VOLUME [2]: 61.27 fL
- MONOCYTE [2]: 1.33%
- NEUTROPHIL [2]: 6.33%
- NUCLEATED RED BLOOD CELLS [2]: 0 /100WBC
- PLATELET COUNT [2]: 1117 x10E3/uL
- ALANINE AMINOTRANSFERASE [2]: 47.83 u/L
- ALBUMIN [2]: 4.33 G/DL
- ALKALINE PHOSPHATASE [2]: 414.5 u/L
- ASPARTATE AMINOTRANSFERASE [2]: 77.5 u/L
- BLOOD UREA NITROGEN [2]: 17 mg/dL
- CARBON DIOXIDE [2]: 32.33 mmol/L
- CHLORIDE [2]: 99.33 MEQ/L
- CHOLESTEROL [2]: 76.33 mg/dL
- CREATINE PHOSPHOKINASE [2]: 363.67 u/L
- CREATININE [2]: 0.25 mg/dL
- GLUCOSE [2]: 173.5 mg/dL
- LACTATE DEHYDROGENASE [2]: 129.33 u/L
- LIPASE [2]: 9.17 u/L
- PHOSPHORUS [2]: 11.52 mg/dL
- SODIUM [2]: 143.85 MEQ/L
- TOTAL BILIRUBIN [2]: 0.2 mg/dL
- TOTAL PROTEIN [2]: 6.43 G/DL
- URIC ACID [2]: 0.97 mg/dL
- ABSOLUTE BASOPHIL [3]: 0 CELLS/uL
- ABSOLUTE EOSINOPHIL [3]: 109.67 CELLS/uL
- ABSOLUTE LYMPHOCYTE [3]: 14631 CELLS/uL
- ABSOLUTE MONOCYTE [3]: 211.33 CELLS/uL
- ABSOLUTE SEGMENTED NEUTROPHIL [3]: 914.67 CELLS/uL
- BASOPHIL [3]: 0%
- EOSINOPHIL [3]: 0.67%
- ERYTHROCYTE COUNT [3]: 5.96 x10E6/uL
- HEMATOCRIT [3]: 38.03%
- HEMOGLOBIN [3]: 14 G/DL
- LEUKOCYTE COUNT [3]: 15.87 x10E3/uL
- LYMPHOCYTE [3]: 92.33%
- MEAN CORPUSCULAR HEMOGLOBIN [3]: 23.53 pg
- MEAN CORPUSCULAR HEMOGLOBIN CONCENTRATION [3]: 36.8 G/DL
- MEAN CORPUSCULAR VOLUME [3]: 63.87 fL
- MONOCYTE [3]: 1.33%
- NEUTROPHIL [3]: 5.67%
- NUCLEATED RED BLOOD CELLS [3]: 0 /100WBC
- PLATELET COUNT [3]: 1509.33 x10E3/uL
- ALANINE AMINOTRANSFERASE [3]: 49.33 u/L
- ALBUMIN [3]: 4.4 G/DL
- ALKALINE PHOSPHATASE [3]: 350 u/L
- ASPARTATE AMINOTRANSFERASE [3]: 82.33 u/L
- BLOOD UREA NITROGEN [3]: 15.33 mg/dL
- CARBON DIOXIDE [3]: 31.33 mmol/L
- CHLORIDE [3]: 99.33 MEQ/L
- CHOLESTEROL [3]: 96.33 mg/dL
- CREATINE PHOSPHOKINASE [3]: 449.67 u/L
- CREATININE [3]: 0.21 mg/dL
- GLUCOSE [3]: 146 mg/dL
- LACTATE DEHYDROGENASE [3]: 163.67 u/L
- LIPASE [3]: 10.33 u/L
- PHOSPHORUS [3]: 11.9 mg/dL
- SODIUM [3]: 142.1 MEQ/L
- TOTAL BILIRUBIN [3]: 0.2 mg/dL
- TOTAL PROTEIN [3]: 6.37 G/DL
- URIC ACID [3]: 2.03 mg/dL
